“And” between values parts separate entries of the source, which are not always exact repeats. Identical values can stand only once.
Key:
VEGF = assay: Western blot and IHC of VEGF in tumor tissue; assay type: in vivo, athymic nude mice; details: after 3 weeks of therapy; western blot; vs saline control
Text: Dynamic contrast-enhanced (DCE) MRI is a non-invasive imaging technique that is able to quantify the anatomical and physiological progression of tumor angiogenesis in response to a variety of different cancer therapies. In order to allow for the safe use of macromolecular contrast medium, a novel polydisulfide-based agent, poly([(Gd-DOTA)-DETA]-co-DTBP) (GODP) was designed, which initially starts as a macromolecular agent during an DCE-MRI protocol, and is then gradually degraded by endogenous thiols in the reductive environment of the bloodstream to improve renal clearance. In this study, two groups of 3 mice, bearing flank HT29 colon cancer xenografts, were treated daily with either bumetanide or saline for a total of 3 weeks. DCE-MRI was performed before and after the start of treatment on a weekly basis, and the collected was analyzed using the adiabiatic approximation to the tissue homogeneity (AATH) model. IHC and western blot analysis was performed to study the changes in CD31, VEGF, and tissue hypoxia. […] Image J software was utilized to quantify the relative protein expression of HIF-1α from the blots by calculating the total pixel intensity from each protein band, and then normalizing these signals with its corresponding β-actin stain. […]

N1-S1 hepatoma = assay: Additional comparison study, hepatocellular rat model, TAE combined with anti-glycolytic agents (Example 2); assay type: in vivo, Sprague Dawley rats; details: over four weeks
Method: To determine if anti-glycolytic agents (AG) combined with transarterial embolization (TAE) improves treatment of an N1-S1 tumor model implanted in Sprague-Dawley rat livers. The animal experiments were approved by the Institutional Animal Care and Use Committee. […] The agents were slowly injected within 2 minutes. […] Tumor volume (V) was calculated by the formula: V=0.5*L*W*H. Relative tumor volume after treatment was calculated as the percentage of pre-treatment tumor volume. Kruskal-Wallis test with Minitab 16 was used to compare the difference of relative tumor volume between 4 groups on each observation time point.

[1] = system: HT29 colon adenocarcinoma xenografts; assay: Tumor growth measured with a caliper; assay type: in vivo, athymic nude mice; details: any point during the 3-week administration period
Method: (§1) The anti-angiogenic effects of bumetanide were investigated in a mouse model bearing subcutaneous HT29 colon adenocarcinoma xenografts. HT29 cells were initially cultured in McCoy's 5A growth media (ATCC), supplemented with 10% FBS, […] of streptomycin, and 100 units/mL of penicillin (Invitrogen). A total of 1×10^6 cells were then inoculated into athymic nude mice in a 250 μL volume of Matrigel (BD Biosciences). Before the start of treatment, tumors were allowed to grow for 10 days, until they were approximately 0.5 cm in diameter. This study comprised of 2 groups of 3 mice, one of which was treated with bumetanide, and the other with a saline control. The drug and saline control were injected intraperitoneally on a daily basis for 3 weeks, with a bumetanide dose of 10 mg/kg. All mice were sacrificed on day 21 of the treatment regimen. Tumor growth was measured at several time points during the therapy with a caliper. Volumes were calculated using the formula […], where D1 and D2 were two diameters measured along perpendicular axes of the tumor lesion.

HIF-1α = assay: Western blot of HIF-1α in tumor tissue; assay type: in vivo, athymic nude mice; details: after 3 weeks of therapy, vs saline control
Method: (§2) Once the final DCE-MRI scans were complete at the end of the therapy, the mice were intravenously injected with 60 mg/kg of pimonidazole, an established marker for the detection of tissue hypoxia. After one hour following the pimonidazole staining, the tumors from these mice were resected for further biological analysis. Half of each tumor that was collected was snap-frozen in liquid nitrogen for western blot, while the other half was sliced into thin sections and formalin-fixed/paraffin-imbedded for immunohistochemistry (IHC) staining. For western blot, cell lysates from the frozen tissue were prepared by homogenizing entire tumor tissues in RIPA lysis buffer supplemented with a Halt protease inhibitor cocktail (Thermo Fisher Scientific). […] The blots were blocked for 1 hr and then stained overnight at 4° C. with primary antibodies for HIF-1α and β-actin, the latter of which serving as the housekeeper control. Image J software was utilized to quantify the relative protein expression of HIF-1α from the blots by calculating the total pixel intensity from each protein band, and then normalizing these signals with its corresponding β-actin stain. Sections of the formalin-fixed tissue were stained with the antibodies for CD31 and the Ki67 nuclear proliferation marker. They were also stained with a primary antibody for the detection of the pimonidazole hypoxia marker. […]

Ki67 = assay: IHC stain for Ki67 proliferation marker in tumor tissue; assay type: in vivo, athymic nude mice; details: after 3-week therapy, mean±SD
Method: Once the final DCE-MRI scans were complete at the end of the therapy, the mice were intravenously injected with 60 mg/kg of pimonidazole, an established marker for the detection of tissue hypoxia. After one hour following the pimonidazole staining, the tumors from these mice were resected for further biological analysis. Half of each tumor that was collected was snap-frozen in liquid nitrogen for western blot, while the other half was sliced into thin sections and formalin-fixed/paraffin-imbedded for immunohistochemistry (IHC) staining. For western blot, cell lysates from the frozen tissue were prepared by homogenizing entire tumor tissues in RIPA lysis buffer supplemented with a Halt protease inhibitor cocktail (Thermo Fisher Scientific). […] Image J software was utilized to quantify the relative protein expression of HIF-1α from the blots by calculating the total pixel intensity from each protein band, and then normalizing these signals with its corresponding β-actin stain. […]
Despite the fact that bumetanide inhibited angiogenesis and induced vascular regression, the therapy was not able to slow down the tumor growth rate over the course of the study. […] A Ki67 index was calculated by determining the percentage of nuclei in a given area of the tissue expressed this factor.

CD31 = assay: IHC stain for CD31 in tumor tissue; assay type: in vivo, athymic nude mice; details: after 3-week therapy, tumor periphery and core, vs saline control
Method: as §2

[2] = system: HT29 colon cancer xenografts; assay: Pimonidazole staining of tumor hypoxia; assay type: in vivo, athymic nude mice; details: after 3-week therapy; vs saline control
Method: as §2

[3] = system: HT29 colon cancer xenografts; assay: DCE-MRI with GODP, AATH model, tumor vascularity; assay type: in vivo, athymic nude mice; details: 3-week time point; 10 mg/kg i.p. daily; entire tumor; mean±SD
Text: Dynamic contrast-enhanced (DCE) MRI is a non-invasive imaging technique that is able to quantify the anatomical and physiological progression of tumor angiogenesis in response to a variety of different cancer therapies. In order to allow for the safe use of macromolecular contrast medium, a novel polydisulfide-based agent, poly([(Gd-DOTA)-DETA]-co-DTBP) (GODP) was designed, which initially starts as a macromolecular agent during an DCE-MRI protocol, and is then gradually degraded by endogenous thiols in the reductive environment of the bloodstream to improve renal clearance. In this study, two groups of 3 mice, bearing flank HT29 colon cancer xenografts, were treated daily with either bumetanide or saline for a total of 3 weeks. DCE-MRI was performed before and after the start of treatment on a weekly basis, and the collected was analyzed using the adiabiatic approximation to the tissue homogeneity (AATH) model. IHC and western blot analysis was performed to study the changes in CD31, VEGF, and tissue hypoxia.
as §1, with “The drug and saline control were injected intraperitoneally on a daily basis for 3 weeks, with a bumetanide dose of 10 mg/kg. All mice were sacrificed on day 21 of the treatment regimen.” left out
Changes in the tumor vascularity were monitored during the treatment by DCE-MRI. […]

CCCCNc1cc(C(=O)O)cc(S(N)(=O)=O)c1Oc1ccccc1 [bumetanide, 3-butylamino-4-phenoxy-5-sulfamoyl-benzoic acid]
VEGF protein levels lower than in control tumors (VEGF): 42.9%
relative tumor volume comparing the different treatments (FIG. 25) (N1-S1 hepatoma): effective at reducing tumor volume
tumor size versus saline control [1]: no significant difference
HIF-1α expression greater than in control tumors (HIF-1α): 59.1% and 59.2%
Ki67 index (percentage of nuclei expressing Ki67) (Ki67): ~24.7±4.51%
CD31 expression (CD31): significant decrease
tumor hypoxia (pimonidazole staining intensity) [2]: increase
average decrease in Fp (blood flow rate) between pre- and post-treatment levels [3]: 71.2±8.01%
average reduction in PS (permeability-surface area product) from pre-treatment level [3]: 72.2±9.26%
average reduction in Vp (fractional plasma volume) from pre-treatment level [3]: 75.6±8.97%

O=C(O)/C=C/c1ccc(O)c(O)c1 [caffeic acid]
relative tumor volume comparing the different treatments (FIG. 25) (N1-S1 hepatoma): effective at reducing tumor volume

COc1cc(/C=C/C(=O)O)ccc1O [ferulic acid]
relative tumor volume comparing the different treatments (FIG. 25) (N1-S1 hepatoma): effective at reducing tumor volume

— patent US10172815B2, “Targeted treatment of anerobic cancer” (UNIVERSITY HOSPITALS CLEVELAND MEDICAL CENTER, priority 2013, dated 2019)
